According to US7939564B2, “Combination with bis(thiohydrazide amides) for treating cancer” (Synta Pharmaceuticals Corp., priority 2006, dated 2011):
Where “and” joins values, the source holds several entries; their conditions need not be identical. Identical values can stand only once. Entries after “also recorded” stand apart in the source; their conditions may differ. Like-named read-outs stand apart in the source and are kept apart here.

Experiments:
Hsp70 = Hsp70 induction by Compound 1 in cells pre-treated with Tiron; format: cell-based; settings: Ramos cells pre-treated with 500 mM Tiron 1 hour prior to Compound 1 0.5 μM for 24 hours
Ramos cells = assay: ROS generation in drug-treated cells, carboxy-H2DCFDA probe, flow cytometry; format: cell-based; settings: for blocking of the ROS generation induced by Compound 1: Ramos cells pre-treated 1 hour (NAC 1.0 mM or 10 mM; Tiron 500 mM) prior to Compound 1 0.5 μM for 24 hours
Method: In these experiments, we monitored the production of ROS using the cell permeable Carboxy-H2DCFDA probe. When this probe is oxidized by ROS, it emits a green fluorescence that can be detected using flow cytometry or fluorescent microscopy. Ramos cells were treated with Compound 1 (0.5 μM) for 24 hours or pre-treated with 1.0 mM or 10 mM NAC for 1 hour prior to addition of Compound 1 was then washed gently once with warm HBSS/Ca/Mg (GIBCO.14025). 25 μM carboxy-H2DCFDA (Invitrogen. C400) working solution was added to cover the cells, and the cells were incubated for 30 minutes at 37° C., protected from light. The cells were gently washed three times in warm HBSS/Ca/Mg. ROS levels, as determined by fluorescence intensity, were determined by flow cytometry (excitation at 495 nm, emission at 529 nm).
Tiron is a direct scavenger of ROS and is a potent inhibitor of oxidative stress. Ramos cells were pre-treated with 500 mM Tiron 1 hour prior to addition of Compound 1 (0.5 μM) for 24 hours, then measurement of ROS levels was performed as in Example 3.

melanoma = settings: other currently used treatments for melanoma, cited from earlier work
[1] = test system: RERF-LC-AI^IVP human lung tumor cells; assay: Nude mouse xenograft study with fractionated ionizing radiation; format: in vivo
Method: Cells that had been cryopreserved in liquid nitrogen were rapidly thawed at 37° C. and transferred to a tissue culture flask containing growth media and then incubated at 37° C. in a 5% CO2 incubator. […] Cultures were passaged by washing with 10 mL of room temperature phosphate buffered saline (PBS) and then disassociating cells by adding 5 mL 1× trypsin-EDTA and incubating at 37° C. until the cells detached from the surface of the flask. To inactivate the trypsin, 5 mL of growth media was added and then the contents of the flask were centrifuged to pellet the cells. The supernatant was aspirated and the cell pellet was resuspended in 10 mL of growth media and the cell number determined using a hemocytometer.
Animals were housed 4-5/cage in micro-isolators, with a 12 hr/12 hr light/dark cycle, acclimated for at least 1 week prior to use and fed normal laboratory chow ad libitum.

[2] = RECIST, Efficacy Sample (n = 50 combination, n = 27 Paclitaxel)
[3] = Tables 3 and 4, lines of the applicant's own trial

Method for Stage 1V melanoma: A total of 81 people with Stage 1V melanoma were tested in a randomized trial with ratios of 2:1, compound (I)+paclitaxel (53 people): paclitaxel alone (28 people). The dosages administered were 213 mg/m^2 compound (I), 80 mg/m^2 paclitaxel, and the dosage regimen was 3 weekly doses per each 4 week cycle. Patients were treated until progression of the disease. Patients who progressed on paclitaxel alone were given the option to crossover to compound (I)+paclitaxel and were treated until progression. The tumor assessments were performed at baseline, Cycle 2, and every other Cycle thereafter.

## O=S(=O)(O)c1cc(O)c(O)c(S(=O)(=O)O)c1 [Tiron]
Hsp70
  blocking of the Hsp70 induction by Compound 1: blocked; also recorded: blocks the induction of Hsp70
Ramos cells
  blocking of the ROS generation induced by Compound 1: blocked the ability of Compound 1 to generate ROS; also recorded: block the production of reactive oxygen species

## CNC(=O)c1cc(Oc2ccc(NC(=O)Nc3ccc(Cl)c(C(F)(F)F)c3)cc2)ccn1 [Sorafenib]
melanoma
  PR (%): 2.6%

## CC(=O)O[C@H]1C(=O)[C@@]2(C)[C@H]([C@H](OC(=O)c3ccccc3)[C@]3(O)C[C@H](OC(=O)[C@H](O)[C@@H](NC(=O)c4ccccc4)c4ccccc4)C(C)=C1C3(C)C)[C@]1(OC(C)=O)CO[C@@H]1C[C@@H]2O [Paclitaxel]
melanoma; listed as Paclitaxel (Taxol)
  OR (%): 12% and 17.8%
Stage 1V melanoma; Kaplan-Meier estimate, Efficacy Sample, 213 mg/m^2 compound (I), 80 mg/m^2 paclitaxel, 3 weekly doses per 4 week cycle
  Time to Progression (days), 25th percentile: 49.0 days
Stage 1V melanoma; Kaplan-Meier estimate, Efficacy Sample, same regimen
  Time to Progression (days), 75th percentile: 106.0 days
Stage 1V melanoma; Kaplan-Meier estimate, Efficacy Sample, same regimen, log-rank p-value 0.017
  Time to Progression (days), Median: 56.0 days
Stage 1V melanoma; RECIST, Efficacy Sample
  Best Overall Response: Partial Response (PR), percent of patients: (3.7%)
  Best Overall Response: Progressive Disease (PD), percent of patients: (59.3%)
Stage 1V melanoma; [2]
  Best Overall Response: Complete Response (CR), number of patients: 0
  Best Overall Response: Partial Response (PR), number of patients: 1
  Best Overall Response: Progressive Disease (PD), number of patients: 16
  Best Overall Response: Stable Disease (SD), number of patients: 10
Stage 1V melanoma; RECIST, Efficacy Sample, Two-Sided Fisher's Exact Test p-value 0.149
  CR + PR: 3.7%
Stage 1V melanoma; [3]
  CR (%): 0%
  OR (%): 3.7%
  PR (%): 3.7%
  TTP: 57 days

## CC/C(=C(\c1ccccc1)c1ccc(OCCN(C)C)cc1)c1ccccc1 [Tamoxifen]
melanoma
  CR (%): 1%
  OR (%): 4.9%
  PR (%): 3.9%

## CCOP(=O)(OCC)C(C)NC(=O)N(CCCl)N=O (stereo not drawn) [Fotemustine]
melanoma
  OR (%): 15.2%
  Survival (months): 7.3 months
  TTP: 55 days

## CC(=O)N[C@@H](CS)C(=O)O [NAC]
Ramos cells
  blocking of the ROS generation induced by Compound 1: almost completely blocked the generation of ROS; also recorded: can be blocked; also recorded: block the production of reactive oxygen species

## CN(NC(=O)CC(=O)NN(C)C(=S)c1ccccc1)C(=S)c1ccccc1 [Compound (1)]
[1]; 100 mg/kg Compound 1 5 times per week combined with 0.5 Gy radiation 3 times per week, dosed 420 minutes after irradiation
  % T/C: 47
[1]; 100 mg/kg Compound 1 combined with 0.5 Gy radiation, Nude mice
  toxicity of the combination treatment: not associated with excessive toxicity
[1]; 100 mg/kg Compound 1 i.v. 5 times per week, 15 doses, alone (mock irradiation)
  % T/C: 112
Ramos cells; Ramos cells, Compound 1
  earliest time at which induction of ROS was observed: ≤ 3 h
Ramos cells; Ramos cells, Compound 1 0.5 μM, 24 hours, versus DMSO
  generation of ROS in drug-treated cells: induced the generation of ROS; also recorded: emit more reactive oxygen species than cells treated with DMSO alone
